“And” between values parts separate entries of the source, which are not always exact repeats. Identical values can stand only once. “Also recorded” adds a separate entry of the source.
Tests used:
[1] = water solubility; type: physicochemical
Excerpt: RHPS4 was synthesized as described (Heald et al 2002). RHPS4 is water-soluble and was therefore dissolved in phosphate buffered saline (PBS). For in vitro studies paclitaxel (Taxol) was purchased from Sigma (St. Louis, Mo.) and dissolved in dimethylsulfoxide (DMSO); for in vivo experiments the clinical formulation was used and obtained Cremophor from Bristol-Myers Squibb, New York, N.Y.

[2] = test system: UXF1138L cells; assay: metaphase spreads; type: cell-based, human; details: 1 microM, 24 hrs
Protocol: To prepare metaphase spreads, cells were grown to 70% confluency and treated with 1 μM RHPS4 or PBS (vehicle control) for 24 hours in a T75 tissue culture flask. Supernatants were then replaced with media containing 10 μg/ml Colcemid (Sigma) and incubated for 90-120 minutes at 37° C. Next, cells were trypsinized and centrifuged at 500×g for 5 minutes; 8 ml 60 mmol/l KCl was added to the pellets and the cell suspension incubated for 20 minutes at 37° C. In a pre-fixation step, 2 ml freshly made fixative (methanol/glacial […] 3:1) was added on top of the hypotonic suspension and mixed carefully by turning the tube. After 10 minutes at RT, the mix was centrifuged at 600×g for 10 min. and the supernatant removed. For fixation, 10 ml fixative were added and the mix is kept at RT for 10 min. and centrifuged as above, the step was repeated 2 more times. Then, 0.5 ml fresh fixative was added to obtain a milky suspension of cells without clumps. Cleaned slides were placed horizontally at a 45° angle and 100 μl of cell solution dropped onto the slide from a distance of about 20 cm. Slides were dried at RT or directly dehydrated through an ethanol series of 70%, 90% and 100%. After dehydration, slides were rinsed in PBS and incubated with 0.1 μg/ml DAPI (4′, 6-diamidino-2-phenylindole)/PBS for 30 minutes at RT. […]

[3] = test system: UXF1138L tumors; assay: atypical mitoses counted in xenograft sections; type: in vivo, nude mice
Protocol: Upon termination of the experiments, tumors from 3 mice per group were excised and immediately fixed in 10% PBS buffered formalin for 24 hours followed by routine paraffin embedding procedures (Burger et al. 2005).
Five-micrometer paraffin sections were cut, dewaxed, and antigen retrieval done in citrate buffer (pH 6.0) in the microwave for 30 minutes. Sections were then treated with methanol/3% hydrogen peroxide to remove endogenous peroxidase and blocked with 10% normal goat serum in PBS and stained. PBS was used as washing buffer. Cells were incubated overnight at 4° C. with a monoclonal anti-hTERT antibody (class IgG2a, kappa, Novacastra, Newcastle, UK) diluted 1:40 in PBS. Mouse immunoglobulin G2a isotype control (Santa Cruz) was used as negative control. hTERT-specific immunoperoxidase staining was developed using the DAKO Envision+ system (Envision 3,3V-diaminobenzidine Plus kit mouse, DAKO Cytomation). […] Sections were viewed and evaluated by two independent pathologists. Mean numbers of atypical mitoses were counted in control and treated tissues from 3 tumors (4 fields of 250 cells per tumor) for the 3 groups (Burger et al. 2005). Box plots were generated using SigmaPlot version 10 software and statistical significance between treatments calculated in SigmaPlot using the Student T-test.

[4] = test system: hTERT; assay: hTERT immunohistochemistry of xenograft tissue; type: in vivo, human; details: RHPS4 treated UXF1138L xenograft
Protocol: Five-micrometer paraffin sections were cut, dewaxed, and antigen retrieval done in citrate buffer (pH 6.0) in the microwave for 30 minutes. Sections were then treated with methanol/3% hydrogen peroxide to remove endogenous peroxidase and blocked with 10% normal goat serum in PBS and stained. PBS was used as washing buffer. Cells were incubated overnight at 4° C. with a monoclonal anti-hTERT antibody (class IgG2a, kappa, Novacastra, Newcastle, UK) diluted 1:40 in PBS. Mouse immunoglobulin G2a isotype control (Santa Cruz) was used as negative control. hTERT-specific immunoperoxidase staining was developed using the DAKO Envision+ system (Envision 3,3V-diaminobenzidine Plus kit mouse, DAKO Cytomation). To enhance contrast, tissues were counterstained with hematoxylin. hTERT-specific staining intensity was documented using a Leica DM4000 microscope and digital camera. Sections were viewed and evaluated by two independent pathologists. Mean numbers of atypical mitoses were counted in control and treated tissues from 3 tumors (4 fields of 250 cells per tumor) for the 3 groups (Burger et al. 2005). Box plots were generated using SigmaPlot version 10 software and statistical significance between treatments calculated in SigmaPlot using the Student T-test.

[5] = test system: HEK293T cells; assay: MTT proliferation assay (monolayer); type: cell-based, human
Protocol: To assess RHPS4 effects on normal stem cells, the human embryonic kidney cell line HEK293T was exposed to drug in the MTT and HTCA assays, and tested RHPS4 effects on colony forming units of the mononuclear cell fraction of human cord blood in methyl cellulose (FIG. 2C). The cord blood colony assay was performed with and without colony stimulating growth factors, only methylcellulose containing growth factors grew colonies. […] Additionally, in normal cell types as compared to tumor cells, low and pharmacodynamically relevant concentrations of RHPS4 (0.01 to 1 microM) did induce colony formation (FIG. 2C). To assure that the induction of colony growth by RHPS4 in normal stem cells is reproducible, cord blood from three different individuals and HEK293T cells from different passages were used. Data shown in FIG. 2C represent the mean and standard deviation from three independent experiments. […] However, the plating efficiency (actual number of colonies growing per total number of cells seeded) varied among the experiments and therefore the results are shown as % of control growth. E.g. HEK293T control colony growth ranged from a mean number of 54 to 463 colonies per well, but the least percentage (cut-off level) of growth induction by RHPS4 observed in either, the individual HEK293T or the cord blood experiments, was 150%. […]

[6] = test system: telomeres of UXF1138L xenografts; assay: telomere restriction fragment (TRF) length by Southern blot in primary cultures from xenografts; type: in vivo, xenograft
Protocol: Upon termination of the experiment, which was when tumors reached a volume of 1.5 cm in diameter (day 28), RHPS4 treated tumor tissue and control tumors were excised, minced and digested using a mixture of collagenase (123 U/ml), DNase (375 U/ml), and hyaluronidase (290 U/ml) in RPMI 1640 medium at 37° C. for 3 hrs. All enzymes were purchased from Roche, Indianapolis Ind.). Primary cultures as well as clonogenic growth assays were prepared from the resulting single cell suspensions. Primary cultures were used for analysis of telomere length. In addition, RHPS4 treated tumors (5 mg/kg/d) and control were propagated into new animals for up to three times. The control mouse group was always derived from untreated tumor fragments, but from the same initial passage as were the RHPS4 treated tumors (FIG. 1B).
To measure TRF (Telomere Restriction Fragment)-length, genomic DNA was isolated from 3-7 day primary cultures established from single cell suspensions of control and treated UXF1138L xenograft tissues using the DNeasy Tissue Kit (Qiagen, Hilden, Germany). Southern blotting was performed with the Telo-TAGGG-telomere length kit from Roche (Penzberg, Germany) and analyzed as described before (Burger et al., 2005; Cookson et al., 2005).

[7] = test system: UXF1138L xenografts; assay: tumor growth inhibition of subcutaneous xenografts; type: in vivo, nude mice

COS(=O)(=O)[O-].Cc1cc2c3c([n+](C)c4ccc(F)cc4c3c1)-c1cc(F)ccc1N2C [RHPS4, 3,11-difluoro-6,8,13-trimethyl-8H-quino[4,3,2-kl]acridinium methosulfate]
solubility in water [1]: water-soluble
chromosome morphology in metaphase spreads [2]: marked increase in end-to-end joining; also recorded: ring and dicentric chromosomes
mitotic abnormalities compared to vehicle control ([3]; 5 mg/kg/d p.o.): significant induction of mitotic abnormalities; also recorded: increase in mitotic abnormalities
atypical mitosis, mean number ([3]; UXF1138L tumors passage 4, control 0.35): 1.25±0.19
nuclear hTERT expression in xenograft tissue [4]: loss of strong nuclear hTERT expression
bulk cell growth, % of control ([5]; 1 mircoM RHPS4, HEK293T monolayer): 60%
induction of growth in MTT assay ([5]; eight dose levels 0.001-50 mircoM): no induction of growth
TRF [kb] ([6]; Passage #1): 5.1 kb
TRF [kb] ([6]; Passage #2): ~4.7 kb
TRF [kb] ([6]; Passage #3): ~3.4 kb
TRF [kb] ([6]; Passage #4): 4.2 kb
rate of TRF-length shortening ([6]; passage ~28 days): approximately 1 kb per passage
tumor growth inhibition, maximal extent compared to control ([7]; Passage 3, day 28): 33%
day of optimal Test/Control ([7]; Passage #1): (16) day
opt. Test/Control [%] ([7]; Passage #1, median tumor volume, 5 mg/kg p.o.): 63%
day of optimal Test/Control ([7]; Passage #2): (7) day
opt. Test/Control [%] ([7]; Passage #2, median tumor volume, 5 mg/kg p.o.): 100%
opt. Test/Control [%] ([7]; Passage #3, median tumor volume, 5 mg/kg p.o., 5 mg/kg): 67% and 67.7%
day of optimal Test/Control ([7]; Passage #4): (16) day
opt. Test/Control [%] ([7]; Passage #4, RHPS4 5 mg/kg p.o. twice weekly, Paclitaxel 20 mg/kg i.v.): 62%
antitumor response in words ([7]; Passage #4 UXF1138L xenografts): only marginal growth inhibition
oral single agent activity ([7]; any of the 4 passages): did not show oral single agent activity

Source: patent US20080279961A1, “TELOMERE TARGETING AGENTS AS STEM CELLS DIRECTED TREATMENTS” (priority 2007, published 2008)
